# Patent publication US11596644B2, “Method for treating post-prandial hypoglycemia” (AVOLYNT, priority 2018, dated 2023)
# Marks after values point to notes of the source that are not given here.
# Experiments:
# [1] = test system: STZ-induced diabetic rats; assay: OGTT in STZ-induced diabetic rats (Example 8); type: in vivo, rat; conditions: for Plasma glucose 0 hr: before dosing; for Plasma glucose 0 hr / Plasma glucose 0.5 hr / Plasma glucose 1 hr / Plasma glucose 2 hr / Plasma glucose 3 hr / ΔAUC (0-1) / ΔAUC (0-1) (% of Control): glucose 2 g/kg, mean ± S.E.M.; for PG elevation after glucose administration: 0.03 and 0.1 mg/kg oral, OGTT 2 g/kg
# Description: (§1) Study in diabetic rats with glucose. Diabetic rats, induced by intravenous injection of streptozotocin (STZ; 40 mg/kg), were used to determining plasma glucose concentration (PG) 1 hr after oral glucose tolerance test (OGTT). […] Blood was collected via the caudal artery immediately before dosing and 0.5, 1, 2, and 3 hr after dosing. The glucose concentration measurement in plasma used Glucose CII-Test Wako kit (Wako Pure Chemicals Industries, Ltd., Osaka, Japan). The variables used for efficacy assessment were the measurement values of the plasma glucose concentration and the area under the curve for plasma glucose concentration through 1 hr after loading (ΔAUC0-1 hr). The ΔAUC0-1 hr for plasma glucose was calculated based on the trapezoid method using the change of plasma glucose concentrations from pre-value (0 hr).
# [2] = test system: STZ-induced diabetic rats; assay: Oral mixed-carbohydrate tolerance test (OMCTT) in STZ-induced diabetic rats (Example 9); type: in vivo, rat; conditions: for Plasma glucose 0 hr: before dosing; for Plasma glucose 0 hr / Plasma glucose 0.5 hr / Plasma glucose 1 hr / Plasma glucose 2 hr / Plasma glucose 3 hr / ΔAUC (0-1) / ΔAUC (0-1) (% of Control): mixed-carbohydrate load, mean ± S.E.M.; for PG elevation after glucose administration: 0.03 and 0.1 mg/kg oral, OMCTT
# Description: as §1, with “with mixed carbohydrates.” for “with glucose.”, “oral mixed-carbohydrate” for “oral glucose”, “test (OMCTT).” for “test (OGTT).”
# [3] = test system: healthy adult male volunteers; assay: Repeat dose study in humans, pharmacodynamic parameters after meals; type: in vivo, human; conditions: repeat dosing
# Description: Repeat dose study in humans. Oral doses of 2 mg, 5 mg, 10 mg, 20 mg, of mizagliflozin, placebo or miglitol 50 mg per dose three times daily to healthy adult male volunteers by a randomized, placebo-controlled, parallel-group, double-blind comparison method. The dose was orally administered with approximately 150 mL of water once daily immediately before breakfast on Days 1 and 13, and three times daily immediately before every meal on Days 3 to 12.
# Changes in the following parameters and ΔAUC from 0 to t* hours after breakfast, lunch, and evening meal were measured: Blood glucose level, Serum insulin concentration, Blood active GLP-1 concentration, and Blood total GIP concentration, where t=0.5, 1, 1.5, 2, and 3 (t=0.5, 1, 1.5, 2, 3, and 5 only after breakfast).
# In the miglitol group, hyperglycemia was suppressed after breakfast, lunch, and evening meal, as compared to the placebo group. […] These pharmacodynamic effects more or less persisted during 10-day repeated administration. There was no correlation between plasma mizagliflozin concentration and the pharmacodynamic effects. Measurements in Tables 5-8 were performed on Day 3 after breakfast.
# [4] = 50 mg per dose, Day 3 after breakfast
Structure (SMILES),Plasma glucose 0 hr ([1]; 0.03 mg/kg oral),Plasma glucose 0.5 hr ([1]; 0.03 mg/kg oral),Plasma glucose 1 hr ([1]; 0.03 mg/kg oral),Plasma glucose 2 hr ([1]; 0.03 mg/kg oral),Plasma glucose 3 hr ([1]; 0.03 mg/kg oral),ΔAUC (0-1) ([1]; 0.03 mg/kg oral),ΔAUC (0-1) (% of Control) ([1]; 0.03 mg/kg oral),Plasma glucose 0 hr ([1]; 0.1 mg/kg oral),Plasma glucose 0.5 hr ([1]; 0.1 mg/kg oral),Plasma glucose 1 hr ([1]; 0.1 mg/kg oral),Plasma glucose 2 hr ([1]; 0.1 mg/kg oral),Plasma glucose 3 hr ([1]; 0.1 mg/kg oral),ΔAUC (0-1) ([1]; 0.1 mg/kg oral),ΔAUC (0-1) (% of Control) ([1]; 0.1 mg/kg oral),PG elevation after glucose administration [1],Plasma glucose 0 hr ([2]; 0.03 mg/kg oral),Plasma glucose 0.5 hr ([2]; 0.03 mg/kg oral),Plasma glucose 1 hr ([2]; 0.03 mg/kg oral),Plasma glucose 2 hr ([2]; 0.03 mg/kg oral),Plasma glucose 3 hr ([2]; 0.03 mg/kg oral),other results
Cc1cc(OCCCN)ccc1Cc1c(O[C@@H]2O[C@H](CO)[C@@H](O)[C@H](O)[C@H]2O)n[nH]c1C(C)C [KGA-2586],128 ± 4 mg/dL,351 ± 22 mg/dL,350 ± 32 mg/dL,154 ± 20 mg/dL,86 ± 4 mg/dL,167 ± 20 mg·h/dL,86 ± 10 % of Control,121 ± 8 ^ mg/dL,236 ± 18^z mg/dL,257 ± 24^x mg/dL,193 ± 21^x mg/dL,105 ± 12^ mg/dL,91 ± 11^y mg · dL^−1 · hr,47 ± 6^y % of Control,inhibited PG elevation after glucose administration dose dependently,118 ± 8 mg/dL,269 ± 5^y mg/dL,235 ± 8 mg/dL,112 ± 11 mg/dL,108 ± 10 mg/dL,ΔAUC (0-1) ([2]; 0.03 mg/kg oral): 105 ± 4^x mg · dL^−1 · hr; ΔAUC (0-1) (% of Control) ([2]; 0.03 mg/kg oral): 64 ± 2^x % of Control; Plasma glucose 0 hr ([2]; 0.1 mg/kg oral): 126 ± 7^ mg/dL; Plasma glucose 0.5 hr ([2]; 0.1 mg/kg oral): 213 ± 11^z mg/dL; Plasma glucose 1 hr ([2]; 0.1 mg/kg oral): 215 ± 13 mg/dL; Plasma glucose 2 hr ([2]; 0.1 mg/kg oral): 144 ± 12 mg/dL; Plasma glucose 3 hr ([2]; 0.1 mg/kg oral): 108 ± 8^ mg/dL; ΔAUC (0-1) ([2]; 0.1 mg/kg oral): 65 ± 6^z mg · dL^−1 · hr; ΔAUC (0-1) (% of Control) ([2]; 0.1 mg/kg oral): 40 ± 4^z % of Control; PG elevation after glucose administration [2]: inhibited PG elevation after glucose administration dose dependently
Cc1cc(OCCCNCC(N)=O)ccc1Cc1c(O[C@@H]2O[C@H](CO)[C@@H](O)[C@H](O)[C@H]2O)n[nH]c1C(C)C [KGA-2588],137 ± 6 mg/dL,351 ± 29 mg/dL,363 ± 48 mg/dL,185 ± 25 mg/dL,101 ± 4 mg/dL,163 ± 23 mg·h/dL,84 ± 12 % of Control,128 ± 8 ^ mg/dL,249 ± 32^y mg/dL,286 ± 51^ mg/dL,221 ± 33^x mg/dL,145 ± 5^z mg/dL,100 ± 23^x mg · dL^−1 · hr,51 ± 12^x % of Control,inhibited PG elevation after glucose administration dose dependently,120 ± 3 mg/dL,291 ± 22 mg/dL,248 ± 17 mg/dL,109 ± 7 mg/dL,100 ± 6 mg/dL,ΔAUC (0-1) ([2]; 0.03 mg/kg oral): 117 ± 14 mg·h/dL; ΔAUC (0-1) (% of Control) ([2]; 0.03 mg/kg oral): 72 ± 9 % of Control; Plasma glucose 0 hr ([2]; 0.1 mg/kg oral): 123 ± 8 mg/dL; Plasma glucose 0.5 hr ([2]; 0.1 mg/kg oral): 258 ± 25^x mg/dL; Plasma glucose 1 hr ([2]; 0.1 mg/kg oral): 224 ± 23 mg/dL; Plasma glucose 2 hr ([2]; 0.1 mg/kg oral): 132 ± 4 mg/dL; Plasma glucose 3 hr ([2]; 0.1 mg/kg oral): 114 ± 6 mg/dL; ΔAUC (0-1) ([2]; 0.1 mg/kg oral): 93 ± 13 mg·h/dL; ΔAUC (0-1) (% of Control) ([2]; 0.1 mg/kg oral): 57 ± 8 % of Control; PG elevation after glucose administration [2]: inhibited PG elevation after glucose administration dose dependently
"OCCN1C[C@H](O)[C@@H](O)[C@H](O)[C@H]1CO [Miglitol, miglitol, reference compound]",,,,,,,,,,,,,,,,,,,,,"AUC 0-5 GIP [3, 4]: 897.03 pg·h/mL; AUC 0-5 GLP-1 (active) [3, 4]: 20.5 pmol·h/L; AUC 0-5 Insulin [3, 4]: 138.33 uU*h/ml; AUC 0-5 glucose [3, 4]: 543.7 mg·h/dL; GIP (peak) [3, 4]: 235 pg/mL; GLP-1 (active) (peak) [3, 4]: 6.21 pmol/L; Glucose (peak) [3, 4]: 121.6 mg/dL; Insulin (peak) [3, 4]: 40.4 uU/ml; Time (h) to peak, GIP [3, 4]: 3 h; Time (h) to peak, GLP-1 (active) [3, 4]: 0.5 h; Time (h) to peak, glucose [3, 4]: 1.5 h; Time (h) to peak, insulin [3, 4]: 2 h; active GLP-1 concentration ([3]; healthy adult male volunteers): a tendency toward increase; hyperglycemia after breakfast, lunch, and evening meal ([3]; healthy adult male volunteers): suppressed; insulin secretion ([3]; healthy adult male volunteers): inhibition of insulin secretion; total GIP concentration ([3]; healthy adult male volunteers): inhibition of increase in total GIP concentration; total GLP-1 concentration ([3]; healthy adult male volunteers): an increase in total GLP-1 concentration"
